Test results: PMC5007443, “TNIK inhibition abrogates colorectal cancer stemness” (Nature Communications, 2016)

Columns and labels:
EGFR = EGFR (Homo sapiens, UniProt P00533); assay: Kinase selectivity profiling, Epidermal growth factor receptor; type: biochemical; conditions: read-out: Percentage inhibition of EGFR
Method: (§1) The selectivity of compounds against a panel of 50 human protein kinases was assessed using a non-radiometric assay.

[1] = tested on: patient-derived colorectal cancer spheroids #6; assay: ATP production of patient-derived spheroid #6; type: cell-based; conditions: Homo sapiens, 72 h; spheroid #6, 3 days
Method: Cells were seeded at a density of 3,000 cells per well in 96-well plates. Twenty-four hours after seeding, the cells were exposed to serially diluted compounds (0.003, 0.01, 0.03, 0.1, 0.3, 1, 3 and 10 μM) and incubated for 72 h (Fig. 3a). Patient-derived colorectal cancer spheroids were dissociated into single cells with Accutase (Nacalai Tesque) and seeded at a density of 3,000 cells per well into Ultra-Low attachment multiwall 96-well plates (Corning; Fig. 6d). ATP was measured with a CellTiter-Glo Luminescent Cell Viability Assay kit (Promega). Experiments were performed in triplicate and repeated at least two times.

PKACα = PKACα (Homo sapiens, UniProt P17612); assay: Kinase selectivity profiling, cAMP-dependent protein kinase, catalytic subunit α; type: biochemical; conditions: read-out: Percentage inhibition of PKACα
Method: as §1

PDGFRα = PDGFRα (Homo sapiens, UniProt P16234); assay: Kinase selectivity profiling, Platelet-derived growth factor receptor α; type: biochemical; conditions: 0.1 µM inhibitor, ATP at Km; for inhibition at 0.1 µM: read-out: Percentage inhibition of PDGFRα
Method: as §1

JNK2 = JNK2 (Homo sapiens, UniProt P45984); assay: Kinase selectivity profiling, c-Jun kinase 2; type: biochemical; conditions: read-out: Percentage inhibition of JNK2
Method: as §1

DLD-1 cells = assay: Limiting dilution analysis of sphere formation, DLD-1; type: cell-based, human
Method: One million HCT116 and DLD-1 cells were seeded onto 60-mm plates and treated with vehicle (DMSO) or compounds (0.1, 0.3 or 1.0 μM) for either 3 or 4 days. After washing off the compounds, the cells were dissociated to single cells in serum-free DMEM/F12 medium (Thermo Fisher Scientific) containing B27 (Thermo Fisher Scientific), 20 ng ml^−1 epidermal growth factor (EGF; Thermo Fisher Scientific), 10 ng ml^−1 basic fibroblast factor (bFGF; Thermo Fisher Scientific), 5 μg ml^−1 insulin (Thermo Fisher Scientific), 0.4% bovine serum albumin (Sigma-Aldrich) and 2 mM L-glutamine (Thermo Fisher Scientific). One hundred, 10 or 1 viable (determined by trypan-blue dye exclusion) cells were seeded into each well of a 96-well U-bottom PrimeSurface plate (Sumitomo Bakelite). Ten days later, the number of wells showing sphere formation was counted. The frequency of sphere-forming cells was calculated using ELDA software (http://bioinf.wehi.edu.au/software/elda/index.html) provided by the Walter and Eliza Hall Institute (Fig. 5c; Supplementary Table 2). Experiments were performed in triplicate and repeated at least two times.

KDR = KDR (Homo sapiens, UniProt P35968); assay: Kinase selectivity profiling, Kinase insert domain receptor; type: biochemical; conditions: read-out: Percentage inhibition of KDR
Method: as §1

AMPKα1/β1/γ1 = AMPKα1/β1/γ1 (Homo sapiens, UniProt Q13131); assay: Kinase selectivity profiling, AMP-activated protein kinase; type: biochemical; conditions: read-out: Percentage inhibition of AMPKα1/β1/γ1
Method: as §1

CHK1 = CHK1 (Homo sapiens, UniProt O14757); assay: Kinase selectivity profiling, Checkpoint kinase 1; type: biochemical; conditions: read-out: Percentage inhibition of CHK1
Method: as §1

JAK3 = target: T1, JAK3 (Homo sapiens, UniProt P52333); assay: Kinase selectivity profiling, Janus kinase 3; type: biochemical; conditions: 0.1 µM inhibitor, ATP at Km; for inhibition at 0.1 µM: read-out: Percentage inhibition of JAK3
T1 sequence (P52333 1-1124): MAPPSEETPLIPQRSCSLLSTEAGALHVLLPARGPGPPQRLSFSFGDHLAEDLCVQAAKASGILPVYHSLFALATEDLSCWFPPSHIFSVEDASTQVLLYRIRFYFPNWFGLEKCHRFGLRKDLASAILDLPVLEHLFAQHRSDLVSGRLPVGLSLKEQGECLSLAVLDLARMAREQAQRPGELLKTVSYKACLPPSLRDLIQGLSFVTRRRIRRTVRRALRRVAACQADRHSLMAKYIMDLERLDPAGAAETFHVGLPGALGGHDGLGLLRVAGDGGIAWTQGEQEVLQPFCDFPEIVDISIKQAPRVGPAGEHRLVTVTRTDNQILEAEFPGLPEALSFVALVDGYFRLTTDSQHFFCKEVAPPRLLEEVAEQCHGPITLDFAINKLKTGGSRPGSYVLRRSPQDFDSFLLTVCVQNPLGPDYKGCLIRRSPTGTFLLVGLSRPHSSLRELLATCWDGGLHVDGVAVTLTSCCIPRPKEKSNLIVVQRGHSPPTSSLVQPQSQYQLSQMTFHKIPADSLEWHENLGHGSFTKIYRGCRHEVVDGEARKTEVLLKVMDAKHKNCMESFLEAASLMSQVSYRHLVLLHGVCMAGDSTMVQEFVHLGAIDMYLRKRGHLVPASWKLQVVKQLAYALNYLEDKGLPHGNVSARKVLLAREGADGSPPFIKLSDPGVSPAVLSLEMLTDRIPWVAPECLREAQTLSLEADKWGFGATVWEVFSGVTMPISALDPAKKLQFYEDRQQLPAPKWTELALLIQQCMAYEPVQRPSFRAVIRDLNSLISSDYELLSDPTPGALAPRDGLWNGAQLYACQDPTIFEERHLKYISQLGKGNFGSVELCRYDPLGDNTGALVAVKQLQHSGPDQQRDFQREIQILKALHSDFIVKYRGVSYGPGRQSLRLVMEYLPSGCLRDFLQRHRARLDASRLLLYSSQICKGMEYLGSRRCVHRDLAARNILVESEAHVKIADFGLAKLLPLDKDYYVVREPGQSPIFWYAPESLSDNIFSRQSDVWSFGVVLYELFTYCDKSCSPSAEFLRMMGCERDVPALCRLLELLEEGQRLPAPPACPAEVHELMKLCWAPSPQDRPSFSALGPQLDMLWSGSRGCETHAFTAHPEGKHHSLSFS
Method: as §1

GSK3β = GSK3β (Homo sapiens, UniProt P49841); assay: Kinase selectivity profiling, Glycogen synthase kinase 3β; type: biochemical; conditions: read-out: Percentage inhibition of GSK3β
Method: as §1

EPHA2 = EPHA2 (Homo sapiens, UniProt P29317); assay: Kinase selectivity profiling, EPH receptor A2; type: biochemical; conditions: read-out: Percentage inhibition of EPHA2
Method: as §1

[2] = DLD-1, 3-day treatment, 0.1 μM, 1 cell per well
[3] = DLD-1, 3-day treatment, 0.1 μM, 10 cells per well
[4] = DLD-1, 3-day treatment, 0.1 μM, 100 cells per well
[5] = DLD-1, 3-day treatment, 0.3 μM, 1 cell per well
[6] = DLD-1, 3-day treatment, 0.3 μM, 10 cells per well
[7] = DLD-1, 3-day treatment, 0.3 μM, 100 cells per well
[8] = DLD-1, 3-day treatment, 1.0 μM, 1 cell per well
[9] = DLD-1, 3-day treatment, 1.0 μM, 10 cells per well
[10] = DLD-1, 3-day treatment, 1.0 μM, 100 cells per well
[11] = DLD-1, 4-day treatment, 0.1 μM, 1 cell per well
[12] = DLD-1, 4-day treatment, 0.1 μM, 10 cells per well
[13] = DLD-1, 4-day treatment, 0.1 μM, 100 cells per well
[14] = DLD-1, 4-day treatment, 0.3 μM, 1 cell per well
[15] = DLD-1, 4-day treatment, 0.3 μM, 10 cells per well
[16] = DLD-1, 4-day treatment, 0.3 μM, 100 cells per well
[17] = DLD-1, 4-day treatment, 1.0 μM, 1 cell per well
[18] = DLD-1, 4-day treatment, 1.0 μM, 10 cells per well
[19] = DLD-1, 4-day treatment, 1.0 μM, 100 cells per well

Sequence of PDGFRα (P16234 24-1089): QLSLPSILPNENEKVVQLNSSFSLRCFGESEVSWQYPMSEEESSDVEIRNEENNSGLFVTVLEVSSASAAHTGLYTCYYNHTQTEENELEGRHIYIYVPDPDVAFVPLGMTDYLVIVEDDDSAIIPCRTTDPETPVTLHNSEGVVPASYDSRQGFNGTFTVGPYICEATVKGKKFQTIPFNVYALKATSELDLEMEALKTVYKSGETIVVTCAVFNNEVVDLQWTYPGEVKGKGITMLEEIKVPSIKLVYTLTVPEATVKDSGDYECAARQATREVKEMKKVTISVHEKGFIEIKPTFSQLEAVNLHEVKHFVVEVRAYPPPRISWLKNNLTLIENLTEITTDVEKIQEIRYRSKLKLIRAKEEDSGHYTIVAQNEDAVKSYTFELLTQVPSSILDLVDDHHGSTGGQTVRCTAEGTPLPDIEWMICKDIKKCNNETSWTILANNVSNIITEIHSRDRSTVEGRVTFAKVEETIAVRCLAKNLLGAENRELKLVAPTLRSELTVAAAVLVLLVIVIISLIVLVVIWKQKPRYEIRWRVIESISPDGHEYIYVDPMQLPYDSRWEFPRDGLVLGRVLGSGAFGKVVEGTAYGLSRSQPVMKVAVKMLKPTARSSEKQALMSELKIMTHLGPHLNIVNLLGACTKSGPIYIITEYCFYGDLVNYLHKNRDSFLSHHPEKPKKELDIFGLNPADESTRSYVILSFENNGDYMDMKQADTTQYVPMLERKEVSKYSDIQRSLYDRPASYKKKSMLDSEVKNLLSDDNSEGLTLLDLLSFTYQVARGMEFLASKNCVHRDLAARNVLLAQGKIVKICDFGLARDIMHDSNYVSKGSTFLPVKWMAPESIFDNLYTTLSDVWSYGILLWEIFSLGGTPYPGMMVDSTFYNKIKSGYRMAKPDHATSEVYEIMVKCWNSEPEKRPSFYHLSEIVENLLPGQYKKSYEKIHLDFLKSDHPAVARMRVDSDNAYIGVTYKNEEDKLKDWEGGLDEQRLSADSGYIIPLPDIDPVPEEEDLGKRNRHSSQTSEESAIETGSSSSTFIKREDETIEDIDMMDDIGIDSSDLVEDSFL
Sequence of EPHA2 (P29317 24-976): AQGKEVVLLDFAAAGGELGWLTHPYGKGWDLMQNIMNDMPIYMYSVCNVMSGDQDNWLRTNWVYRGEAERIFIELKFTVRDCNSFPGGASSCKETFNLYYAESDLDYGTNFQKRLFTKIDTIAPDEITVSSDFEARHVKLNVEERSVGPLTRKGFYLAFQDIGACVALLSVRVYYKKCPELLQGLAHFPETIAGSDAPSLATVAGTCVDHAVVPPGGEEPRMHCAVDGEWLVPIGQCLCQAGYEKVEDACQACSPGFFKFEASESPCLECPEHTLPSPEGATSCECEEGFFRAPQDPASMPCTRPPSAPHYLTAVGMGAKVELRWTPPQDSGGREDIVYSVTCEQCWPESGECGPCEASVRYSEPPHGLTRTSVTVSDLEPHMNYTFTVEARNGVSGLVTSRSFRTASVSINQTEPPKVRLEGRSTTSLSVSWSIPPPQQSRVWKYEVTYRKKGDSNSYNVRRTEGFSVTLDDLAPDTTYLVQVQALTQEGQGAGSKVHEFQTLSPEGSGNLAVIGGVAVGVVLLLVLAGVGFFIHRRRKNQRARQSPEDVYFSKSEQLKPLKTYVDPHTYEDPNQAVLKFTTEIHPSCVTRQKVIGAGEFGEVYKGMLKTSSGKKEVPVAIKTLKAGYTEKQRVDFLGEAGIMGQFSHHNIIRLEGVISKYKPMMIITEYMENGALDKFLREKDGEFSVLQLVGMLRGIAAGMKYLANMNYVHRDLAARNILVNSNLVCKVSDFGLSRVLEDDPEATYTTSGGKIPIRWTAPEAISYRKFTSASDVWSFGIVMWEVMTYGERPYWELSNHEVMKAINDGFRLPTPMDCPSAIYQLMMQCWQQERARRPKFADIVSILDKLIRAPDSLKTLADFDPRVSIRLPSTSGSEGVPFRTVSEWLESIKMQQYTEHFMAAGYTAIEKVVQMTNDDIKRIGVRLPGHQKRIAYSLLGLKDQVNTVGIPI
Sequence of GSK3β (P49841 whole entry): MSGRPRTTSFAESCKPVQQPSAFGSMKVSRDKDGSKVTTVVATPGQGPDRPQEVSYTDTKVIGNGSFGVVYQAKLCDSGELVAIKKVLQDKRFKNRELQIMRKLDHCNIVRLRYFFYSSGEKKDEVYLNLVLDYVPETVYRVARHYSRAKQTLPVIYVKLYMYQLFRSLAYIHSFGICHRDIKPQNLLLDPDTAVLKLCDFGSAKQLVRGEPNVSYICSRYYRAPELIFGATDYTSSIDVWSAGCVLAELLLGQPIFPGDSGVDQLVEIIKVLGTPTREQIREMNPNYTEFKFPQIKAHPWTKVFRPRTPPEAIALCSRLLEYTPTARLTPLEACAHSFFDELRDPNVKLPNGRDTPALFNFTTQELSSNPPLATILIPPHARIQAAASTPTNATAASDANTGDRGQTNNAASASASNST
Sequence of EGFR (P00533 25-1210): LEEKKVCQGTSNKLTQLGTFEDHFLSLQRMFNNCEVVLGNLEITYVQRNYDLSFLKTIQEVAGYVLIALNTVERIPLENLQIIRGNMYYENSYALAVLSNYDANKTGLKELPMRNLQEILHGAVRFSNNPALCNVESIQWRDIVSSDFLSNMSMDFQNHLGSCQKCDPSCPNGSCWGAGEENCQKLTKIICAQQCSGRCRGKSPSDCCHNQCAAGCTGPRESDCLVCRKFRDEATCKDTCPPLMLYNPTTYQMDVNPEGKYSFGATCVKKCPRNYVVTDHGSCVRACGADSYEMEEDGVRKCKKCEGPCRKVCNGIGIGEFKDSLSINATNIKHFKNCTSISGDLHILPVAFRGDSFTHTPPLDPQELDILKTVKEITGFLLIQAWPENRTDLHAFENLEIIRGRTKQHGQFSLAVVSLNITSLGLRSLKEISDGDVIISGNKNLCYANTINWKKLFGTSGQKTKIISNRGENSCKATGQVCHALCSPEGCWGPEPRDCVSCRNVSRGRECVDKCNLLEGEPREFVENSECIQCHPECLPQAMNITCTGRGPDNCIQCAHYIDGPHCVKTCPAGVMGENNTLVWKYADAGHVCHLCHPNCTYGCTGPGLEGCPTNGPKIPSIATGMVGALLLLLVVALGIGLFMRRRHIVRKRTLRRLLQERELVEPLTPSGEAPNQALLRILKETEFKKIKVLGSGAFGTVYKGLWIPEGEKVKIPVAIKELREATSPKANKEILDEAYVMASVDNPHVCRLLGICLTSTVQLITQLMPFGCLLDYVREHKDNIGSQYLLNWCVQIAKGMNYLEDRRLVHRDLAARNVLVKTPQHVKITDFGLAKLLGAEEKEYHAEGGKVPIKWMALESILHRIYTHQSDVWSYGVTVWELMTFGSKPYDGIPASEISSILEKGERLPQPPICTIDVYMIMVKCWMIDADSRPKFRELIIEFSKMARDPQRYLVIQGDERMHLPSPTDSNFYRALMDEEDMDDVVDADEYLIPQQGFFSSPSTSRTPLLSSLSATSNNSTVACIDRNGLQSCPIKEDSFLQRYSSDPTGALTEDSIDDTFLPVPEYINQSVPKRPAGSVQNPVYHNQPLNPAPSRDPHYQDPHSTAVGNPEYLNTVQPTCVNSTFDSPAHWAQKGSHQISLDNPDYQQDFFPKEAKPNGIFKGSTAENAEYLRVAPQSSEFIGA
Sequence of JNK2 (P45984 whole entry): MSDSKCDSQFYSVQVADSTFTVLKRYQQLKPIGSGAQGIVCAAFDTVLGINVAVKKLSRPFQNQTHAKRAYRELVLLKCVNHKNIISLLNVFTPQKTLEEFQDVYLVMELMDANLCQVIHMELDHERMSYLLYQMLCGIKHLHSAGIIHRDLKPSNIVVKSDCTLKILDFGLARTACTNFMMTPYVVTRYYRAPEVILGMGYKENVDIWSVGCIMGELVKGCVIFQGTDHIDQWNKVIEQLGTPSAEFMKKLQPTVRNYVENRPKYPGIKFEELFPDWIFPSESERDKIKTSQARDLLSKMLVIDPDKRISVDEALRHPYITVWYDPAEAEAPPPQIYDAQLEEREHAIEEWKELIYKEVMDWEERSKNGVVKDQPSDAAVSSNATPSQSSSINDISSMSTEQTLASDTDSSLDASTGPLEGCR
Sequence of CHK1 (O14757 whole entry): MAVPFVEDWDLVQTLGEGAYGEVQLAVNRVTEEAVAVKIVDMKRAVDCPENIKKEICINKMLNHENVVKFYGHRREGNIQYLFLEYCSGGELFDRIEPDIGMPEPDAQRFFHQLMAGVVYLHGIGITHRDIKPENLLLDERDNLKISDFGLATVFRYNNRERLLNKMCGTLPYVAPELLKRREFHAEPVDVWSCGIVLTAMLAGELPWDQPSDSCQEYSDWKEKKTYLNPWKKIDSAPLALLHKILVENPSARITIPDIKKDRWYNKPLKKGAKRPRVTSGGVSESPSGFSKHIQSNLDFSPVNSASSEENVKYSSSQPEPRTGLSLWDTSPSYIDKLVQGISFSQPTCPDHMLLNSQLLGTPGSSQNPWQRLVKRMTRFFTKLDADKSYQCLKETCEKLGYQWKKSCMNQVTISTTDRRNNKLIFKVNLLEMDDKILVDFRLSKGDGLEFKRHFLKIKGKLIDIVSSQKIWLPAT

SMILES | inhibition at 0.1 µM (EGFR) [%] | IC50 [1] [nM] | inhibition at 0.1 µM (PKACα) [%] | inhibition at 0.1 µM (PDGFRα) [%] | inhibition at 0.1 µM (JNK2) [%] | Sphere-containing wells/total wells (DLD-1 cells; [2]) | Sphere-containing wells/total wells (DLD-1 cells; [3]) | Sphere-containing wells/total wells (DLD-1 cells; [4]) | Sphere-containing wells/total wells (DLD-1 cells; [5]) | Sphere-containing wells/total wells (DLD-1 cells; [6]) | Sphere-containing wells/total wells (DLD-1 cells; [7]) | Sphere-containing wells/total wells (DLD-1 cells; [8]) | Sphere-containing wells/total wells (DLD-1 cells; [9]) | Sphere-containing wells/total wells (DLD-1 cells; [10]) | Sphere-containing wells/total wells (DLD-1 cells; [11]) | Sphere-containing wells/total wells (DLD-1 cells; [12]) | Sphere-containing wells/total wells (DLD-1 cells; [13]) | Sphere-containing wells/total wells (DLD-1 cells; [14]) | Sphere-containing wells/total wells (DLD-1 cells; [15]) | Sphere-containing wells/total wells (DLD-1 cells; [16]) | other results
O[C@H]1CC[C@@H](Oc2cccc3cnc(Nc4ccc5nc[nH]c5c4)nc23)CC1 [NCB-0846, cis-4-(2-(3H-benzo[d]imidazol-5-ylamino)quinazolin-8-yloxy)cyclohexanol] | 4.8 | 680 | 0.9 | > 80 | 0.3 | 55/96 | 95/96 | 96/96 | 23/96 | 86/96 | 96/96 | 3/96 | 25/96 | 77/96 | 39/96 | 92/96 | 96/96 | 46/96 | 90/96 | 95/96 | Percentage inhibition of PDGFRα (PDGFRα; 0.1 µM): 89.0%; Sphere-containing wells/total wells (DLD-1 cells; [17]): 7/96; Sphere-containing wells/total wells (DLD-1 cells; [18]): 34/96; Sphere-containing wells/total wells (DLD-1 cells; [19]): 96/96; sphere formation activity (DLD-1 cells; DLD-1, short-term (3–4 days) treatment): significantly abrogated; inhibition at 0.1 µM (KDR): 71.1%; inhibition at 0.1 µM (AMPKα1/β1/γ1): 31.5%; inhibition at 0.1 µM (CHK1): 10.1%; Percentage inhibition of JAK3 (JAK3; 0.1 µM): 96.3%; inhibition at 0.1 µM (JAK3): > 80%; inhibition at 0.1 µM (GSK3β): 27.7%; inhibition at 0.1 µM (EPHA2): 13.6%
O[C@H]1CC[C@H](Oc2cccc3cnc(Nc4ccc5nc[nH]c5c4)nc23)CC1 [NCB-0970] | -16.8 | > 3000 | -4.4 | 45.6 | -3 | 40/96 | 96/96 | 96/96 | 51/96 | 95/96 | 96/96 | 16/96 | 75/96 | 95/96 | 55/96 | 95/96 | 96/96 | 65/96 | 94/96 | 96/96 | Sphere-containing wells/total wells (DLD-1 cells; [17]): 45/96; Sphere-containing wells/total wells (DLD-1 cells; [18]): 95/96; Sphere-containing wells/total wells (DLD-1 cells; [19]): 96/96; inhibition at 0.1 µM (KDR): 43.7%; inhibition at 0.1 µM (AMPKα1/β1/γ1): 9.3%; inhibition at 0.1 µM (CHK1): 9%; inhibition at 0.1 µM (JAK3): 85.4%; inhibition at 0.1 µM (GSK3β): 13.5%; inhibition at 0.1 µM (EPHA2): 8.7%
